Where “and” joins values, the source holds several entries; their conditions need not be identical. Equal values may be shown once. Entries after “also recorded” stand apart in the source; their conditions may differ.
Key:
Type in all cases: in vivo, human
[1] = tested on: patients with PD and constipation; test: Circadian rhythm of wrist skin temperature; conditions: for circadian rhythm of wrist skin temperature (IS, RA, CFI, IV): 12 evaluable patients, fixed dose versus baseline
Procedure: (6) I-Button Temperature Assessment. The 1-Button is a small, rugged self-sufficient system that measures temperature and records the results in a protected memory section. The Thermochron I-Button DS1921H (Maxim Integrated, Dallas, Tex.) was used for skin temperature measurement. I-Buttons were programmed to sample every 10 mins., and attached to a double-sided cotton sport wrist band using Velcro, with the sensor face of the I-Button placed over the inside of the wrist, on the radial artery of the dominant hand. Subjects removed and replaced the data logger when necessary (i.e., to have a bath or shower). The value of skin temperature assessment in sleep research is that the endogenous skin warming resulting from increased skin blood flow is functionally linked to sleep propensity. From the collected data, the mesor, amplitude, acrophase (time of peak temperature), Rayleight test (an index of interdaily stability), mean waveforms are calculated.);
(§1) Assessments were made at baseline and at the end of the fixed dose and washout periods. Circadian system status was evaluated by continuously monitoring wrist skin temperature (Thermochron iButton DS1921H; Maxim, Dallas) following published procedures (Sarabia et al. 2008).
Circadian rhythm of skin temperature was evaluable in 12 patients (i.e., those who had recordings that extended from baseline through washout). Circadian system functionality was evaluated by continuously monitoring wrist skin temperature using a temperature sensor (Thermochron iButton DS1921H; Maxim, Dallas, Tex.) (Sarabia et al. 2008). […]
Briefly, this analysis includes the following parameters: (i) the inter-daily stability (the constancy of 24-hour rhythmic pattern over days, IS); (ii) intra-daily variability (rhythm fragmentation, IV); (iii) average of 10-minute intervals for the 10 hours with the minimum temperature (L10); (iv) average of 10-minute intervals for the 5 hours with the maximum temperature ([…]) and the relative amplitude (RA), which was determined by the difference between M5 and L10, divided by the sum of both. […]

[2] = tested on: patients with PD and constipation; test: Neurological (CNS) symptoms in Stage 2: UPDRS, MMSE, PDHQ, BDI-II; conditions: for patients in whom hallucinations or delusions improved or disappeared during treatment: 6 patients with hallucinations (5) or delusions (1) at baseline
Excerpt: (8) Beck Depression Inventory (BDI-II);
(9) Unified Parkinson's Disease Rating Scale (UPDRS), which consists of 42 items in four subscales (Part I=Non-Motor Aspects of Experiences of Daily Living (nM-EDL) (1.1 cognitive impairment, 1.2 hallucinations and psychosis, 1.3 depressed mood, Part II=Motor Aspects of Experiences of Daily Living (M-EDL), Part III=Motor Examination, and Part IV=Motor Complications;
(10) Mini Mental State Examination (MMSE);
(12) The University of Miami Parkinson's Disease Hallucinations Questionnaire (UM-PDHQ);
Exploratory end-points, in addition to constipation, included for example, (i) depression assessed using the Beck Depression Inventory (BDI-II) (Steer et al. 2000) and Unified Parkinson's Disease Rating Scale (UPDRS); (ii) cognition assessed using the Mini Mental State Examination (MMSE) (Palsteia et al. 2018), Unified Parkinson's Disease Rating Scale (UPDRS), and Trail Making Test (TMT); (iii) sleep and REM-behavior disorder (RBI)) using a daily sleep diary, I-Button Temperature Assessment, a REM sleep behavior disorder (RBD) questionnaire (RBDQ) (Stiasny-Kolster et al. 2007), and the UPDRS; (iv) hallucinations assessed using the PD hallucinations questionnaire (PDHQ) (Papapetropoulos et al. 2008), the UPDRS, and direct questioning; (v) fatigue using the Parkinson's Disease Fatigue Scale (PFS-16) and the UPDRS; (vi) motor functions using the UPDRS; and (vii) non-motor functions using the UPDRS.
as §1
An exploratory analysis was done with respect to the sleep data, the body temperature data, mood, fatigue, hallucinations, cognition and other motor and non-motor symptoms of PD. Continuous measurements within a subject were compared with a paired t-test and continuous measurements between subject groups were compared with a two-group t-test. Categorical data were compared with a chi-squared test or a Fisher's exact test if the expected cell counts are too small for a chi-squared test.

[3] = tested on: patients with PD and constipation; test: Phase 2 trial Stage 2: bowel function with daily oral dosing escalated to a fixed dose
Procedure: Following successful screening, all subjects underwent a 14-day run-in period where the degree of constipation was assessed through a validated daily log (Zinsmeister et al. 2013) establishing baseline CSBMs/week. Subjects with an average of <3 CSBMs/week proceeded to dosing.
In Stage 2, 34 patients were evaluated. […] This dose was then maintained (“fixed dose”) fir an additional 3-5 days.
The primary efficacy outcome variable was whether or not a subject was a “success” or “failure”. This is an endpoint based on subject diary entries for the “fixed dose” period prior to the endpoint assessment defined as average complete stool frequency increase by 1 or more over baseline, or 3 or more complete spontaneous stools/week. The subject was deemed a “success” if s/he met one or more of the criteria listed above, otherwise the subject was deemed a “failure”. The primary analysis was based on all subjects with a baseline assessment and an assessment at the end of the “fixed-dose” period and was a comparison of the proportion of successes with 0.10 (the null hypothesis corresponding to no treatment effect).
The proportion of subjects for whom the drug was a success was estimated with a binomial point estimate and corresponding 95% confidence interval. A secondary analysis compared the proportions of subjects who are deemed a success at the end of the randomized fixed-dose period between those randomized to the squalamine (ENT-01) arm and those randomized to the placebo arm. A Fisher's exact test was used to compare the proportions of subjects who were deemed a success at the end of randomization period between the two randomized arms

## CC(C)[C@@H](CC[C@@H](C)[C@H]1CC[C@H]2[C@@H]3[C@H](O)C[C@H]4C[C@@H](NCCCNCCCCN)CC[C@]4(C)[C@H]3CC[C@]12C)OS(=O)(=O)O (single isomer, unassigned) [ENT-01, squalamine]
[1]
  circadian rhythm of wrist skin temperature (IS, RA, CFI, IV): significant positive impact; also recorded: improved all markers of healthy circadian function
[1]; listed as Aminosterol
  circadian rhythm of wrist skin temperature (IS, RA, CFI, IV): improved all markers of healthy circadian function
[1]; wash-out period (IS, CFI)
  circadian rhythm parameters during wash-out: persisted for several of these circadian parameters
[2]; 1 patient
  time without return of hallucinations/delusions after discontinuation: 4 weeks
[2]
  patients in whom hallucinations or delusions improved or disappeared during treatment: five
[2]; listed as aminosterol
  patients in whom hallucinations or delusions improved or disappeared during treatment: five and 5 of 6
[2]; listed as squalamine (ENT-01)
  patients in whom hallucinations or delusions improved or disappeared during treatment: 5 of 6
[2]; another patient
  time without return of hallucinations/delusions after discontinuation: 2 weeks
[3]; Stage 2, 1.8/week to 0.3
  decrease of rescue medication use, baseline to fixed dose: 83%
[3]; Stage 2, 2.6 to 4.5
  improvement of SBM, baseline to fixed dose: 73%
[3]; Stage 2, at fixed dose, mean (SD), baseline 3.2, listed as aminosterol
  Ease of passage (Ease of evacuation scale 1-7): 3.7
